This note sets out measurements from US9433645B2, “Method and composition for preventing stem cell disruption and aggregation” (R BIO CO., LTD., priority 2012, dated 2016).

What all share (format): cell-based, human
For data set [1], the system named is adipose tissue-derived mesenchymal stem cells. Briefly: Survival rate of stem cells suspended in normal saline containing acetylsalicylic acid. As to conditions: for Survival rate: 1.0×10^7 cells. On the procedure: After the adipose tissue-derived mesenchymal stem cells isolated in Example 1 were treated with trypsin, the trypsin treated adipose tissue-derived mesenchymal stem cells (1.0×10^7 cells) were suspended in normal saline containing acetylsalicylic acid (Sigma; A5376) at each concentration, and survival rates at 12 and 24 hours were observed. The normal saline containing acetylsalicylic acid was prepared by adding acetylsalicylic acid to normal saline at each concentration and performing sonication at 37 °C for 30 minutes.

Data set [2] shares this test system. Briefly: Survival, number of cells and aggregation of stem cells suspended in normal saline containing aspirin lysine. On the procedure:
(§1) After the adipose tissue-derived mesenchymal stem cells isolated in Example 1 were treated with trypsin, the trypsin treated adipose tissue-derived mesenchymal stem cells (1.0×10^6 cells) were suspended in normal saline containing aspirin lysine (Shinpoong) at each concentration and cultured for 5 days, and the number of cells was measured. Then, after cold-temperature storage for 24 hours, FACS was measured, thereby confirming characteristics of the cells.

Data set [3] shares this test system. In words: FACS characteristics (marker expression rate) of stem cells after suspension in normal saline containing aspirin lysine. The procedure: as §1
[4] abbreviates: FACS, aspirin 0.1 mg/10 ml, after cold-temperature storage for 24 hours.

With `CC(=O)Oc1ccccc1C(=O)O` [acetylsalicylic acid], the Survival rate in data set [1] (12 hours, aspirin 1 mg/10 ml normal saline) worked out at 50%; in data set [1] (12 hours, aspirin 2 mg/10 ml normal saline), 20%; in data set [1] (12 hours, aspirin 5 mg/10 ml normal saline), 10%; in data set [1] (24 hours, aspirin 1 mg/10 ml normal saline), 10%; in data set [1] (24 hours, aspirin 2 mg/10 ml normal saline) it was 10%; in data set [1] (24 hours, aspirin 5 mg/10 ml normal saline), 5%. The Cytotoxic effect entry in data set [1] (aspirin added to 10 ml of normal saline 1.0 mg or more) was “a cytotoxic effect was exhibited”.
As to `CC(=O)Oc1ccccc1C(=O)O` [aspirin lysine], in data set [2] (after culturing for 5 days), the “Change in the number of cells” value is “almost no change in the number of cells”. Further, in data set [2] (normal saline containing aspirin lysine at each concentration), the “Cell survival rate depending on the concentration” value is recorded as “slightly decreased, but the decrease was not significant”. Also, the Aggregation on storage entry in data set [2] (storing the stem cells in normal saline containing aspirin) is “aggregation may be prevented without causing changes in the characteristics of cells”. In data set [3] (setting [4]), the “Expression rate CD29” value turned out to be 99.97%, the “Expression rate CD31” value stood at 0.21%, the “Expression rate CD44” value is listed as 99.25% and the “Expression rate CD45” value is given as 0.17%. Also, the “Characteristics of the stem cells (FACS)” value in data set [3] (stored at a cold temperature for 24 hours after suspension in normal saline containing aspirin for 24 hours) is on record as “no influence of the concentration of aspirin”.
